From US20230139171A1 (SITA Information Networking Computing UK Limited, priority 2019, published 2023)

Columns and labels:
Assay type in all cases: cell-based
human TLR8 = molecular target: T1, human TLR8 (Homo sapiens, UniProt Q9NR97); assay: TLR8 inhibition reporter assay (HEK-Blue cells, SEAP reporter, R848 stimulation); conditions: HEK-Blue cells overexpressing human TLR8, SEAP reporter, R848 15.9 μM; read-out: TLR8 IC50
T1 construct: host or cells: HEK-Blue cells
T1 sequence (Q9NR97 27-1041): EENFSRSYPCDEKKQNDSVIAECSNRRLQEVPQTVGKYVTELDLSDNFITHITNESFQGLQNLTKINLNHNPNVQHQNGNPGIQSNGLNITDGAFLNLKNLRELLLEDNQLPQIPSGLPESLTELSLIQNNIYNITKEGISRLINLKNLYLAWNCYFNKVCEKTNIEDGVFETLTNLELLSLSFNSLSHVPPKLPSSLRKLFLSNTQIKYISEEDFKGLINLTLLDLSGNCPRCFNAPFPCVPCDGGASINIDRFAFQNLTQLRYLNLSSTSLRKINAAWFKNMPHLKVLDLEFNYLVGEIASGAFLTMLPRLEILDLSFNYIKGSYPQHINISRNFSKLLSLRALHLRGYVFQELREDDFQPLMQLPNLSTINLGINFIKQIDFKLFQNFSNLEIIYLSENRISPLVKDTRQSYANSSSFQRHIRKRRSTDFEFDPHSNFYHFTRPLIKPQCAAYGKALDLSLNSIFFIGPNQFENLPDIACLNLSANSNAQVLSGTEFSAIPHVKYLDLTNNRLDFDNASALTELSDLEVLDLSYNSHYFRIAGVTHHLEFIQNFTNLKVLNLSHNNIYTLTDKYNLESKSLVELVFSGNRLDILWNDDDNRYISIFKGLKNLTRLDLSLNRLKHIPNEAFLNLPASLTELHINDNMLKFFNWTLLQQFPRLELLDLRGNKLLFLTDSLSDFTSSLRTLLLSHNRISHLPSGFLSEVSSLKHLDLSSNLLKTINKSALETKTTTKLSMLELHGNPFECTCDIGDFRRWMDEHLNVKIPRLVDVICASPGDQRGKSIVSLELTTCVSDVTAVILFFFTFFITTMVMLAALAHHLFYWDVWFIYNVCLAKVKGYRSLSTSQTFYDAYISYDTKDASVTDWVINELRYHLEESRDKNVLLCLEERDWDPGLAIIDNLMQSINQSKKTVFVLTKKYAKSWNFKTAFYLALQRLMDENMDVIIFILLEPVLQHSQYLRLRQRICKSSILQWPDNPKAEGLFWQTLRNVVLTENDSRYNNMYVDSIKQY
In short: (§1)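 Screening used HEK-Blue cells overexpressing one human TLR (7, 8 or 9) and an IFN-β minimal promoter–NF-κB/AP-1 SEAP construct. Stimulation lasted 22 h at 37 °C with receptor-specific agonist: gardiquimod, R848 or ODN2006 at 7.5 μM, 15.9 μM and 5 nM.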

human TLR7 = molecular target: T2, human TLR7 (Homo sapiens, UniProt Q9NYK1); assay: TLR7 inhibition reporter assay (HEK-Blue cells, SEAP reporter, gardiquimod stimulation); conditions: HEK-Blue cells overexpressing human TLR7, SEAP reporter, gardiquimod 7.5 μM; read-out: TLR7 IC50
T2 construct: host or cells: HEK-Blue cells
T2 sequence (Q9NYK1 27-1049): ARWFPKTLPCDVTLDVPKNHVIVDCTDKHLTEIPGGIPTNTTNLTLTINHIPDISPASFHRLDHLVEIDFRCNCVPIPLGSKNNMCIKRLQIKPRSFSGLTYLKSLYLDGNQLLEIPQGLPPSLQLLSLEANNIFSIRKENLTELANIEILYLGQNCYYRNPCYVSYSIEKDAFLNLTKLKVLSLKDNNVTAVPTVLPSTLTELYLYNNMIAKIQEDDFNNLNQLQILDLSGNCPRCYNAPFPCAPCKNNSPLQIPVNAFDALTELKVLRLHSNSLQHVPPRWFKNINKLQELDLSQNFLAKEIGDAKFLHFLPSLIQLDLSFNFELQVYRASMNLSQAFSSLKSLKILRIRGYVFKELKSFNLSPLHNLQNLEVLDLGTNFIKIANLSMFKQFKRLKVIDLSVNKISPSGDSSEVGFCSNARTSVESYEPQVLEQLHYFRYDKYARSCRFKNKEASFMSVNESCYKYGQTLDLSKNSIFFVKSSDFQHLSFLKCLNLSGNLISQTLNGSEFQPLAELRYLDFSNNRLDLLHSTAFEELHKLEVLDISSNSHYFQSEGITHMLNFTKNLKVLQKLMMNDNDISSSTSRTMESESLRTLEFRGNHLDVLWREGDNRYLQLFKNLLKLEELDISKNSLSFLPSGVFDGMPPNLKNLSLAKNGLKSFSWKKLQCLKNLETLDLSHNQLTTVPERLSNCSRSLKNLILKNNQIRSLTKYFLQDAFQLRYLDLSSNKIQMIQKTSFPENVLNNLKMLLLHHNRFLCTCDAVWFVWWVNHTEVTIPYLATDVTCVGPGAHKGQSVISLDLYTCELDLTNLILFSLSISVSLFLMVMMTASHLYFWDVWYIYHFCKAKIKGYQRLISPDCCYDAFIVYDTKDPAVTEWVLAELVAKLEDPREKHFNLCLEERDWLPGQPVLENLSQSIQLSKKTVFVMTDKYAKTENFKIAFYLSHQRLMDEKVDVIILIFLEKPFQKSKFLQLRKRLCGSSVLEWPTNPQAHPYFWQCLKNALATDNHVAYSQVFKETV
In short: as §1

human TLR9 = molecular target: T3, human TLR9 (Homo sapiens, UniProt Q9NR96); assay: TLR9 inhibition reporter assay (HEK-Blue cells, SEAP reporter, ODN2006 stimulation); conditions: HEK-Blue cells overexpressing human TLR9, SEAP reporter, ODN2006 5 nM
T3 construct: host or cells: HEK-Blue cells
T3 sequence (Q9NR96 26-1032): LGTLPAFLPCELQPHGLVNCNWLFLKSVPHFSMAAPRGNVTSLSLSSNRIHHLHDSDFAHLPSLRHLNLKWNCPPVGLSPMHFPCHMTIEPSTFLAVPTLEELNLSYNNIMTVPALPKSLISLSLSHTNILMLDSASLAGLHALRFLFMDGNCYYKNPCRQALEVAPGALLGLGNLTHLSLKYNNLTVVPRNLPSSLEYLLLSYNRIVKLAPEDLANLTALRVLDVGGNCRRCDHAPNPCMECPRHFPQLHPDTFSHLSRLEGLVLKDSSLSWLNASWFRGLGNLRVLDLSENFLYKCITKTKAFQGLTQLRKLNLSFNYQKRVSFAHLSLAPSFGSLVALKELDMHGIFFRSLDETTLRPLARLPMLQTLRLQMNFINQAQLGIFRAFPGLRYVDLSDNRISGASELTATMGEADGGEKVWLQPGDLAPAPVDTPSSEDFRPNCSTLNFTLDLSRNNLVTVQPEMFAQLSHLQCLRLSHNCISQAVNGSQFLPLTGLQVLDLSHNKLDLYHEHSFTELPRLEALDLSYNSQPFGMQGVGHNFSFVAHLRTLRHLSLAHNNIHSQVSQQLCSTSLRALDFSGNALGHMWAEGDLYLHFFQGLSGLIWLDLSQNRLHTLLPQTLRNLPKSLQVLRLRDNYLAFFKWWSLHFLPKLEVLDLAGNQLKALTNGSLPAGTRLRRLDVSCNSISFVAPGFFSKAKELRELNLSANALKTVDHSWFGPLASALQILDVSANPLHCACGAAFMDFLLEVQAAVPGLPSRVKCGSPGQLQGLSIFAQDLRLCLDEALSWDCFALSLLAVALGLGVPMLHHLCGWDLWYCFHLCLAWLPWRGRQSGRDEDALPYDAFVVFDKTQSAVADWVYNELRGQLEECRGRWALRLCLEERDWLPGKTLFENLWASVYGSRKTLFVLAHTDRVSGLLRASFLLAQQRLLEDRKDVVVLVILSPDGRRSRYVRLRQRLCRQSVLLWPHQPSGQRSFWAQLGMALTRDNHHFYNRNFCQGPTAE
In short: as §1

| Compound | IC50 (human TLR8) [nM] | IC50 (human TLR7) [nM] | IC50 (human TLR9) [µM] |
| --- | --- | --- | --- |
| Cc1c(-c2[nH]c3sc(C4CCC(N5CC(O)(C(F)(F)F)C5)CC4)nc3c2C(C)C)cn2ncnc2c1C (single isomer, unassigned) [Example 236, 1-(4-(5-(7,8-dimethyl-[1,2,4]triazolo[1,5-a]pyridin-6-yl)-6-isopropyl-4H-pyrrolo[3,2-d]thiazol-2-yl)cyclohexyl)-3-(trifluoromethyl)azetidin-3-ol] | 18.7 | 1.36 | 25.4 |
| Cc1c(-c2[nH]c3sc(C4CCC(N5CCC6(CC5)COC6)CC4)nc3c2C(C)C)cn2ncnc2c1C (single isomer, unassigned) [Example 238, 7-(4-(5-(7,8-dimethyl-[1,2,4]triazolo[1,5-a]pyridin-6-yl)-6-isopropyl-4H-pyrrolo[3,2-d]thiazol-2-yl)cyclohexyl)-2-oxa-7-azaspiro[3.5]nonane] | 5.96 | 5.4 | 5.37 |
| Cc1c(-c2[nH]c3sc(C4CCC(NC5COC5)CC4)nc3c2C(C)C)cn(C)c(=O)c1C (single isomer, unassigned) [Example 242, 5-(6-isopropyl-2-(4-(oxetan-3-ylamino)cyclohexyl)-4H-pyrrolo[3,2-d]thiazol-5-yl)-1,3,4-trimethylpyridin-2(1H)-one] | 16.1 | 47.1 | > 50 |
| COC(C)(C)CNC1CCC(c2nc3c(C(C)C)c(-c4cn(C)c(=O)c(C)c4C)[nH]c3s2)CC1 (single isomer, unassigned) [Example 244, 5-(6-isopropyl-2-(4-((2-methoxy-2-methylpropyl)amino)cyclohexyl)-4H-pyrrolo[3,2-d]thiazol-5-yl)-1,3,4-trimethylpyridin-2(1H)-one] | 17.5 | 44 | 25.3 |
| Cc1c(-c2[nH]c3sc(C4CCC(N5CC6(COC6)C5)CC4)nc3c2C(C)C)cn(C)c(=O)c1C (single isomer, unassigned) [Example 246, 5-(2-(4-(2-oxa-6-azaspiro[3.3]heptan-6-yl)cyclohexyl)-6-isopropyl-4H-pyrrolo[3,2-d]thiazol-5-yl)-1,3,4-trimethylpyridin-2(1H)-one] | 154 | 60.8 | > 50 |

These reach a lower IC50 (human TLR8). Values come first.

| IC50 (human TLR8) [nM] | IC50 (human TLR7) [nM] | IC50 (human TLR9) [µM] | Compound |
| --- | --- | --- | --- |
| 0.29 | 4.87 | 5.49 | Cc1c(-c2[nH]c3sc(C4CCC(N5CCC6(CC5)COC6)CC4)nc3c2C(C)C)cn2ncnc2c1C (single isomer, unassigned) [Example 237, 7-(4-(5-(7,8-dimethyl-[1,2,4]triazolo[1,5-a]pyridin-6-yl)-6-isopropyl-4H-pyrrolo[3,2-d]thiazol-2-yl)cyclohexyl)-2-oxa-7-azaspiro[3.5]nonane] |
| 0.27 | 1.96 | 9.93 | Cc1c(-c2[nH]c3sc(C4CCC(N5CC6(CCOCC6)C5)CC4)nc3c2C(C)C)cn2ncnc2c1C (single isomer, unassigned) [Example 239, 2-(4-(5-(7,8-dimethyl-[1,2,4]triazolo[1,5-a]pyridin-6-yl)-6-isopropyl-4H-pyrrolo[3,2-d]thiazol-2-yl)cyclohexyl)-7-oxa-2-azaspiro[3.5]nonane] |
| 2.82 | 3.72 | 6.23 | Cc1c(-c2[nH]c3sc(C4CCC(N5CC6(CCOCC6)C5)CC4)nc3c2C(C)C)cn2ncnc2c1C (single isomer, unassigned) [Example 240, 2-(4-(5-(7,8-dimethyl-[1,2,4]triazolo[1,5-a]pyridin-6-yl)-6-isopropyl-4H-pyrrolo[3,2-d]thiazol-2-yl)cyclohexyl)-7-oxa-2-azaspiro[3.5]nonane] |
| 3.19 | 8.06 | > 50 | Cc1c(-c2[nH]c3sc(C4CCC(NC5COC5)CC4)nc3c2C(C)C)cn(C)c(=O)c1C (single isomer, unassigned) [Example 241, 5-(6-isopropyl-2-(4-(oxetan-3-ylamino)cyclohexyl)-4H-pyrrolo[3,2-d]thiazol-5-yl)-1,3,4-trimethylpyridin-2(1H)-one] |
| 2.1 | 16.4 | 29.8 | COC(C)(C)CNC1CCC(c2nc3c(C(C)C)c(-c4cn(C)c(=O)c(C)c4C)[nH]c3s2)CC1 (single isomer, unassigned) [Example 243, 5-(6-isopropyl-2-(4-((2-methoxy-2-methylpropyl)amino)cyclohexyl)-4H-pyrrolo[3,2-d]thiazol-5-yl)-1,3,4-trimethylpyridin-2(1H)-one] |
| 0.65 | 2.6 | 22.9 | Cc1c(-c2[nH]c3sc(C4CCC(N5CC6(COC6)C5)CC4)nc3c2C(C)C)cn(C)c(=O)c1C (single isomer, unassigned) [Example 245, 5-(2-(4-(2-oxa-6-azaspiro[3.3]heptan-6-yl)cyclohexyl)-6-isopropyl-4H-pyrrolo[3,2-d]thiazol-5-yl)-1,3,4-trimethylpyridin-2(1H)-one] |
